Data from patent publication US20220177515A1, “METHOD FOR MODIFYING AMINO GROUP IN MOLECULE WITH THE ZOLINIUM AND USE THEREOF” (priority 2019, published 2022).
Starred links: 1 amine or outer side, 2 acyl side, 3 side chain; linkers in the order of their positions; H or OH if unused. Non-standard residues stand in square brackets, D forms with d. Residues, ends and D or L forms follow the SMILES beside them. X1 = O=C([C@H](Cc1ccc(O)cc1)N(c1ccc2ccccc2n1)[*:1])[*:2]

Key:
tankyrase (TNKS) = conditions: read-out: IC50 (TNKS inhibitor); cited from earlier work
μ-opioid receptor (MOR) = μ-opioid receptor (MOR) (Homo sapiens, UniProt P35372); experiment: [35S]GTPγS binding assay, MOR agonist activity; assay type: biochemical; conditions: for Emax: [35S]GTPγS binding rate
Sequence of μ-opioid receptor (MOR) (P35372 whole entry): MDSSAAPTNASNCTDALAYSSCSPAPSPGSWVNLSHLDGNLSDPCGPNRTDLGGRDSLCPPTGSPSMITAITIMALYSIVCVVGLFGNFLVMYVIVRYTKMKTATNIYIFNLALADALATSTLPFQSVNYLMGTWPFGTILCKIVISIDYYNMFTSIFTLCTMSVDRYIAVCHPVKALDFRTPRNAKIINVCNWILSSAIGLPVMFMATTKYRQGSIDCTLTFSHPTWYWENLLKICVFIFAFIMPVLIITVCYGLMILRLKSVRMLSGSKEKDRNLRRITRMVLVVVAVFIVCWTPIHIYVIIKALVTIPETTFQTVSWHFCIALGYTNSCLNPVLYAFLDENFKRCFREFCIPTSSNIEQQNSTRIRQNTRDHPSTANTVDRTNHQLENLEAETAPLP
Description: Protein concentration was detected using BCA protein concentration assay kit: 10 μl of protein standard was prepared into a final concentration of 0.5 mg/ml. 0, 1, 2, 4, 8, 12, 16, or 20 μl of BSA standard protein was taken and added together with the sample to be tested to a 96-well plate, and supplemented to 20 μl with the solution for diluting the standard. 200 μl of BCA working solution was added to each well and placed at 37° C. for 30 min. The absorbance at A562 wavelength was measured with a microplate reader. The protein concentration was calculated based on the standard curve.
The prepared membrane receptor was diluted to the required concentration with the reaction buffer (R.B), and the samples were added as shown in Table 2 (unit: μl).
The reaction tube was incubated in a 27° C. water bath for 1 hour, and the mixture was filtered through a glass fiber membrane under reduced pressure and liquid scintillation counting was performed. The following equation was used to perform calculation:
[^35S] GTPγS binding rate=100×(cpmsample−cpmnon-specific)/(cpmbasal−cpmnon-specific)

[1] = system: Hepatocarcinoma BEL-7402 cells; experiment: Cell proliferation inhibition assay (SRB method), BEL-7402; assay type: cell-based; conditions: for IC50: BEL-7402, 72 hours, SRB
Description: (§1) Hepatocarcinoma BEL-7402 and SMMC-7721 cells were purchased from American Standard Bacterial Bank. All cell lines were stored in a cell culture medium containing 10% fetal bovine serum in a humid environment at 37° C. and 5% CO2. The two kinds of hepatocarcinoma cells were seeded in 96-well plates overnight. The assay were performed using a final highest concentration of 100 μM, 10-fold dilution, 6 gradients and 3 duplicates, and the cells were treated for 72 hours and three independent repeated experiments were carried out. The antiproliferative activity of the compound was determined by Sulforhodamine B (SRB) method. Then the absorbance OD value at a wavelength of 510 nm was measured on a Synergy H4 Hybrid reader (BioTek, Winooski, Vt., USA) by using Gen5.0 software (BioTek). The IC50 value was calculated using the software Prism 5 (GraphPad Software, Inc).

[2] = system: Hepatocarcinoma SMMC-7721 cells; experiment: Cell proliferation inhibition assay (SRB method), SMMC-7721; assay type: cell-based; conditions: for IC50: SMMC-7721, 72 hours, SRB
Description: as §1

[3] = assay type: in vitro ADME; conditions: 1 mg/ml in pig liver slurry, 0.25-3 hour, FIG. 3
Description: 5 g of a fresh pig liver from which adhering fat and connective tissue were removed, was washed with a cold saline, absorbed water on its surface with a filter paper and weighed. The liver was cut into pieces with a scissors, added with an appropriate amount of a PBS buffer, and homogenized with a homogenizer at a frequency of 30/s for 4 minutes to prepare 20 ml of a slurry. The compound 2-40 to be tested (at a final concentration of 1 mg/ml with a co-solvent (1% DMSO)) was added into the 20 ml pig liver slurry, stirred thoroughly and left stand. 1 ml of samples were withdrawn twice at six time points: 0.25 hour, 0.5 hour, 1 hour, 1.5 hour, 2 hour and 3 hour, respectively, and added with methanol (500 μl) to stop the reaction. After centrifugation (1000 rpm, 6 minutes), the supernatant was separated and extracted twice with 750 μl of water-saturated n-butanol. The extracted samples were then analyzed by HPLC. The HPLC analysis was performed on an Agilent Zorbax SB-C18 column (5 μm, 4.6×250 mm) with a flow rate of […] at 25° C. The gradient condition used was from 50% A (MeOH) and 50% B (H2O+0.2% CH3COOH) to 95% A and 5% B in 16 minutes. The absorbance values at 210, 254 and 280 nm were collected using a UV-DAD detector.

For `Cc1cc(=O)[nH]c2cc(-c3ccccc3F)ccc12` [7-(2-fluorophenyl)-4-methylquinoline-2(1H)-one], which IC50 (tankyrase (TNKS)) is on record?
Its IC50 is 0.052 µM.

Which Emax (μ-opioid receptor (MOR); mean ± sem) does the source give for `C[C@@H](NC(=O)[C@@H](N)Cc1ccc(O)cc1)C(=O)N[C@@H](Cc1ccccc1)C(=O)NCC(=O)N[C@@H](Cc1ccc(O)cc1)C(=O)N1CCC[C@H]1C(=O)N[C@@H](CO)C(N)=O` [derorphin, reference compound] here?
The Emax was 219 ± 7.1%.

Which results are given for `COC(=O)[C@H](CC(C)C)NC(=O)[C@H](CO)NC(=O)[C@H](Cc1ccc(O)cc1)Nc1ccc2ccccc2n1` [Compound 2-39]?
cytotoxicity compared with unmodified drugs ([1]; BEL-7402): better cytotoxicities than the unmodified drugs; IC50 [1]: 52.6 ± 2.47 µM; cytotoxicity compared with unmodified drugs ([2]; SMMC-7721): better cytotoxicities than the unmodified drugs; IC50 [2]: 63.3 ± 6.35 µM

Which IC50 [1] does the source give for `COC(=O)[C@H](CC(C)C)NC(=O)[C@H](CO)NC(=O)[C@@H](N)Cc1ccc(O)cc1` [YSL-M, tyroserleucide methyl ester, reference compound] (H-Tyr-Ser-Leu-OMe; N-terminus assumed) here?
The IC50 was > 100 µM.

What about the IC50 [2] of the same compound?
Its IC50 is > 100 µM.

With `C[C@H](NC(=O)[C@H](Cc1ccc(O)cc1)Nc1ccc2ccccc2n1)C(=O)N[C@H](Cc1ccccc1)C(=O)NCC(=O)N[C@H](Cc1ccc(O)cc1)C(=O)N1CCC[C@H]1C(=O)N[C@@H](CO)C(N)=O` [Compound 2-38] (H-[X1]A[dF]G[dY]PS-NH2) as the compound, how does the “MOR agonist activity compared with derorphin” value (μ-opioid receptor (MOR)) read?
Its value is “activity comparable to that of derorphin”.

And the EC50 (μ-opioid receptor (MOR); mean ± sem)?
Its EC50 is 0.224 ± 0.0251 µM.

What about the Emax (μ-opioid receptor (MOR); mean ± sem) of the same compound?
The Emax was 203 ± 5.1%.

For `C=C(/C=C\C(=C)NC(=O)[C@H](CCCNC(N)=O)NC(=O)[C@@H](Nc1cc(C)c2ccc(-c3ccccc3F)cc2n1)C(C)C)CO` [Compound 2-40], which “metabolic stability in liver tissue” value [3] is on record?
The value was “good metabolic stability”.

With `CC(C)C[C@H](NC(=O)[C@H](CO)NC(=O)[C@@H](N)Cc1ccc(O)cc1)C(=O)O` [YSL, Tyroserleutide, reference compound] (H-Tyr-Ser-Leu-OH; N-terminus and C-terminus assumed) as the compound, how does the IC50 [1] read?
Its IC50 is > 100 µM.

And the IC50 [2]?
The IC50 was > 100 µM.
